What was measured:
HCMV = HCMV plaque (focus) reduction assay; assay type: cell-based; details: Human betaherpesvirus 5; Table 1; HFF cells; read-out: 50% Inhibitory Concentration HCMV Plaque
Source text: The 148 strain of HSV-1 was used in most experiments and was provided by Dr. T. W. Schafer of Schering corporation. The HF strain of HSV-1 was used in selected experiments and was obtained from Dr. G. H. Cohen, University of Pennsylvania. The Towne strain, plaque-purified isolate Po, of HCMV was a gift of Dr. Mark Stinski, University of Iowa.
HCMV was titered in 24-well cluster dishes which were planted to contain 5×10^4 cells/well, grown as described above. When the cells were 70 to 80% confluent, 0.2 ml of the virus suspension was added per wall and adsorbed as described above. At least three ten-fold dilutions of each preparation were used. Following virus adsorption, the cell sheets were overlayed with 0.5% methocel (4000 CPS) in maintenance medium [MEM(E) with 1.1 gm/liter NaHCO3, 100 units/ml penicillin G, 100 μg/ml streptomycin, and 5% fetal bovine serum]. The cultures were incubated in a humidified atmosphere of 4% CO2 -96% air. Viral foci were visible 5 to 7 days after infection using at least 10-fold magnification. Cells were fixed and stained by a 10-minute exposure to a 0.1% solution of crystal violet in 20% methanol 7 to 12 days after infection. Microscopic foci were enumerated at 20-fold magnification using a Nikon Profile Projector.
The effect of compounds of the replication of HCMV has been measured using both a plaque (focus) reduction assay and a titer (yield) reduction assay. For the former, HFF cells in 24-well culture dishes were infected with approximately 50 p.f.u. of HCMV per well using the procedures detailed above. Compounds dissolved in growth medium were added in three to six selected concentrations to triplicate wells following virus adsorption. Following incubation at 37° C. for 7 to 10 days, cell sheets were fixed, stained and microscopic foci were enumerated as described above. Drug effects were calculated as a percentage of reduction in number of foci in the presence of each drug concentration compared to the number observed in the absence of drug. DHPG (ganciclovir) was used as a positive control in all experiments.
(§1) Dose-response relationships were used to compare drug effects. These were constructed by linearly regressing the percent inhibition of parameters derived in the preceding sections against log drug concentrations. The 50% inhibitory (I50) concentrations were calculated from the regression lines using the methods described by Goldstein. See Goldstein, A., Biostatistics: An Introductory Text, MacMillan, N.Y., 1964, pp. 156-161. Along with the I50 concentration for visual cytotoxicity, the averaged I50 concentrations are compared to I50 concentrations for inhibition for HCMV or HSV-1 replication. Compounds for which the ratio of cytotoxicity I50 concentrations to antiviral I50 concentrations (in vitro therapeutic index) were greater than 10, were considered for further study.

[1] = Visual cytotoxicity scoring in HFF cells; assay type: cell-based; details: human, Table 1, at time of HCMV plaque enumeration, read-out: 50% Inhibitory Concentration Cytotoxicity HFF (visual)
Source text: (§2) Cytotoxicity produced in HFF and BSC-1 cells was estimated by visual scoring of cells not affected by virus infection in the HCMV and HSV-1 plaque reduction assays. Cytopathology was estimated at 35- and 60-fold magnification and scored on a zero to four plus basis. Wells were scored on the day of staining.
as §1

in vitro = assay type: cell-based, human; details: human, kb cells
Protocol: KB or HFF cells were planted using a Costar Transplate-96 (Costar, Cambridge, Mass.) in Costar 96-well cluster dishes at a concentration of 10,000 to 12,000 cells per well. Wells were suspended in 200 μl of medium [MDM(H) plus 0.7 gm/liter NaCHO3 supplemented with 10% calf serum] per well. After incubation of 16 to 24 hours at 37° C. in a humidified atmosphere of 4% CO2 in air, […] of medium was removed per well. One-hundred μl of medium with or without compounds in twice their final concentrations was added to each well using a Titertek Multichannel Pipette. Final concentrations of compounds ranged from 0.1 to 320 μM. Fifty μl of medium containing radioactive precursors also was added to each well to give a final concentration to 1 to 3 μCi/ml of labeled precursor. [^3 H]Thd was diluted with unlabeled dThd to give a final concentration of 3 or 6 μM.
Logarithmic cell growth occurred during this time with continual uptake of labeled precursors. At the end of the incubation period, cells were individually harvested from each well using a Skatron Cell harvester (Skatronh, Inc., Sterling, Va.). Cultures for individual wells were harvested onto filter paper and washed free of unincorporated label with nine sequential washes with 5% trichloroacetic acid, nine washes with water, and nine with ethanol using the Skatron unit. Filters were dried, circles from individual cultures were punched from the filter mat and placed into mini-vials. Liquid scintillation solution was added, and radioactivity determined in a Beckman model LS8100 liquid scintillation spectrometer. All samples were counted for 2.0 minutes each, with three rounds of counting. Counts per minute were determined following the application of statistical methods to eliminate count rates which fell outside distribution limits defined by Chauvenet's rejection criterion.
All analyses were performed in triplicate. That is, three culture wells were used per time point, radioactive precursor, and drug concentration in all experiments. Results from triplicate assays were converted to percent of control and plotted as log dose-response curves from which 50% inhibitor (I50) concentrations were interpolated. Three concentrations of vidarabine were included on all plates as a positive control.
as §1

[2] = Visual cytotoxicity scoring in BSC-1 cells; assay type: cell-based; details: african green monkey, Table 1, at time of HSV-1 plaque enumeration, read-out: 50% Inhibitory Concentration Cytotoxicity BSC (visual)
Source text: as §2, §1

Row | SMILES | IC50 (HCMV) | CC50 [1] | CC50 (in vitro) | CC50 [2]
1 | Nc1nc2c(ncn2COCCO)c(=O)[nH]1 [Acyclovir, reference compound] | 63 µM | > 100 µM | > 100 µM | > 100 µM
2 | Nc1nc(O)c2ncn(COC(CO)CO)c2n1 [Ganciclovir (DHPG), reference compound] | 8.7 µM | > 100 µM | 1000 µM | > 100 µM
3 | Nc1ncnc2c1c(Cl)cn2COCCO [UMJD 100, 4-Amino-5-chloro-7-(2-hydroxyethoxymethyl)pyrrolo[2,3-d]-pyrimidine] | 22 µM | > 100 µM | 350 µM | > 100 µM
4 | Nc1ncnc2c1c(Br)cn2COCCO [UMJD 102, 4-Amino-5-bromo-7-(2-hydroxyethoxymethyl)pyrrolo[2,3-d]-pyrimidine] | 3.5 µM | 100 µM | 100 µM | > 100 µM
5 | Nc1ncnc2c1c(I)cn2COCCO [UMJD 104, 4-Amino-5-iodo-7-(2-hydroxyethoxymethyl)pyrrolo[2,3-d]-pyrimidine] | 24 µM | 100 µM | 94 µM | > 100 µM
6 | Nc1ncnc2c1c(Br)cn2COC(CO)CO [UMJD 183, 4-amino-5-bromo-7-[(1,3-dihydroxy-2-propoxy)methyl]-pyrrolo[2,3-d]pyrimidine] | 1.6 µM | > 100 µM | 25 µM | > 100 µM
7 | Nc1ncnc2c1c(Cl)cn2COC(CO)CO [UMJD 186, 4-amino-5-chloro-7-[(1,3-dihydroxy-2-propoxy)-methyl]pyrrolo[2,3-d]pyrimidine] | 9.8 µM | > 100 µM | > 100 µM | > 100 µM
8 | OCC(CO)OCn1cc(Br)c2c(NO)ncnc21 [UMJD 299, 4-hydroxylamino-5-bromo-7-[(1,3-dihydroxy-2-propoxy)methyl]pyrrolo[2,3-d]pyrimidine] | 1.2 µM | > 100 µM | 357 µM | 
